# Reference: patent publication EP1200395B1, “UREA DERIVATIVES AS INHIBITORS OF CCR-3 RECEPTOR” (KIRIN BEER KABUSHIKI KAISHA, priority 1999, dated 2001)
# Biological target: T1, CCR-3 (Homo sapiens, UniProt P51677)
# T1 sequence (P51677 1-355): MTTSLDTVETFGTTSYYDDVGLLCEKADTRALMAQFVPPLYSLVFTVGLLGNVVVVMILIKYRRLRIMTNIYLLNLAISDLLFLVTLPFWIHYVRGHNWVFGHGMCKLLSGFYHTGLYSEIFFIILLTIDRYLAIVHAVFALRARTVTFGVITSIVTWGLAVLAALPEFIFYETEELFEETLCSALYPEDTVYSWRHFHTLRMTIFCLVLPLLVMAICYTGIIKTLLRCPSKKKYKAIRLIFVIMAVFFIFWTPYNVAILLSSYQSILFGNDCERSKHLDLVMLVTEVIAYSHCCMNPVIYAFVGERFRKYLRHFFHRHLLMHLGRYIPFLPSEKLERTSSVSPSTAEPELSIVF
# Assay: Eotaxin-induced chemotaxis of CCR-3 transfectant cells (CCR3/U937)
# Assay type: cell-based
# Parameters: expressed in transfected cells; host or cells: U937
# Conditions: eotaxin 1 x 10^-9 M; for inhibition at 10 µM: U-937; for inhibition at 10 µM / Chemotaxis Assay 10 µM (inhibition %): 10 µM test compound; for Chemotaxis Assay 0.1 µg/ml (inhibition %): test compound 0.1 µg/ml, CCR3/U937 transfectants, 37 °C, 1 hour
Compound,Chemotaxis Assay 10 µM (inhibition %) (CCR3/U937 cells (Table 3a)),further results
"COc1ccc([C@@H](C)N(CCCNC(=O)Nc2ccc(Br)cc2)CCCC(=O)O)cc1 [Compound 227, 4-[[3-(4-Bromophenylureido)propyl][(1R)-1-(4-methoxyphenyl)ethyl]amino]butanoic acid]",,inhibition at 10 µM (CCR3/U937 cells (Table 3a)): 100%
CC[N+](CCCNC(=O)Nc1ccccc1)(CCc1ccc(Cl)cc1Cl)CC(N)=O.[I-] (stereo not shown) [compound 409],,Chemotaxis Assay 0.1 µg/ml (inhibition %): 53%
COC(=O)CCCN(CCCNC(=O)Nc1ccc(OC)cc1)C1CCCc2ccccc21 (stereo not shown) [Compound 57],100%,
CC[N+](CCCNC(=O)Nc1ccc(Br)cc1)(CCCC(=O)OC)C(C)c1ccccc1.[I-] (stereo not shown) [compound 313],,Chemotaxis Assay 10 µM (inhibition %) (CCR3/U937 cells (Table 3c)): 86%
O=C(NCCCN(CCc1ccc(Cl)cc1)Cc1cnc2ccccc2c1)Nc1ccccc1 [Compound 20],,inhibition at 10 µM (CCR3/U937 cells (Table 3a)): 26%
COc1ccc(CN(CCCNC(=O)Nc2ccccc2)CCc2ccc(Cl)cc2)cc1 [Compound 18],,inhibition at 10 µM (CCR3/U937 cells (Table 3a)): 58%
CC[N+](CC#N)(CCCNC(=O)Nc1ccc(Br)cc1)CCc1cccc(Cl)c1.[I-] (stereo not shown) [compound 372],,Chemotaxis Assay 0.1 µg/ml (inhibition %): 76%
COC(=O)CCCN(CCCNC(=O)Nc1ccc(Br)cc1C)C1CCCc2ccccc21 (stereo not shown) [Compound 200],100%,
COc1ccc(CCN(CCCNC(=O)Nc2ccc(Br)cc2)CCCC(=O)O)cc1OC [Compound 73],44%,
O=C(NCCCN(CCc1ccc(Cl)cc1)Cc1cccnc1)Nc1ccccc1 [Compound 23],,inhibition at 10 µM (CCR3/U937 cells (Table 3a)): 82%
COC(=O)CCCN(CCCNC(=O)Nc1cccc(Br)c1)C1CCCc2ccccc21 (stereo not shown) [Compound 198],100%,
COC(=O)CCCN(CCCNC(=O)Nc1ccc(Br)cc1)C(Cc1ccccc1)c1ccccc1 (stereo not shown) [Compound 45],62%,
CCC[N+](CC)(CCCNC(=O)Nc1ccc(Br)cc1)CCc1ccc(Cl)cc1.[I-] (stereo not shown) [Compound 295],,Chemotaxis Assay 10 µM (inhibition %) (CCR3/U937 cells (Table 3c)): 100%
CC[N+](CCCNC(=O)Nc1ccccc1)(CCc1ccc(Cl)cc1Cl)Cc1ccccc1.[I-] (stereo not shown) [compound 327],,Chemotaxis Assay 10 µM (inhibition %) (CCR3/U937 cells (Table 3c)): 100%
"COC(=O)CCCN(CCCNC(=O)Nc1ccc(C(=O)O)cc1)C1CCCc2ccccc21 (stereo not shown) [Compound 225, Methyl 4-[[3-[4-(carboxy)phenylureido]propyl](1,2,3,4-tetrahydro-1-naphthyl)amino]butylate]",100%,
CCC(CC)C[N+](CC)(CCCNC(=O)Nc1ccc(OC)cc1)CCc1cccc(F)c1.[I-] (stereo not shown) [compound 450],,Chemotaxis Assay 0.1 µg/ml (inhibition %): 35%
CCN(CCCNC(=O)Nc1ccccc1)CCc1ccc(C)cc1 [Compound 231],90%,
CC[N+](CCCNC(=O)Nc1ccc(Cl)c(Cl)c1)(CCc1ccc(Cl)cc1)Cc1ccccc1.[I-] (stereo not shown) [compound 325],,Chemotaxis Assay 10 µM (inhibition %) (CCR3/U937 cells (Table 3c)): 100%
CC(C)(C)c1ccc(CN(CCCNC(=O)Nc2ccccc2)CCc2ccc(Cl)cc2)cc1 [Compound 19],,inhibition at 10 µM (CCR3/U937 cells (Table 3a)): 47%
Cc1ccc(CN(CCCNC(=O)Nc2ccccc2)CCc2ccc(Cl)cc2)cc1 [Compound 21],,inhibition at 10 µM (CCR3/U937 cells (Table 3a)): 40%

Compound,Chemotaxis Assay 10 µM (inhibition %) (CCR3/U937 cells (Table 3a)),further results
O=C(NCCCN(CCc1ccc(Cl)cc1)Cc1ccc(Cl)cc1)Nc1ccccc1 [Compound 17],,inhibition at 10 µM (CCR3/U937 cells (Table 3a)): 51%
COCCN(CCCNC(=O)Nc1ccccc1)CCc1ccc(Cl)cc1 [Compound 275],100%,
C=C(C)C[N+](CC)(CCCNC(=O)Nc1ccccc1)CCc1cccc(Cl)c1.[I-] (stereo not shown) [compound 423],,Chemotaxis Assay 0.1 µg/ml (inhibition %): 92%
CC[N+](CCCNC(=O)Nc1ccccc1)(CCc1ccc(Cl)cc1)Cc1ccc(OCc2ccccc2)cc1.[I-] (stereo not shown) [compound 334],,Chemotaxis Assay 10 µM (inhibition %) (CCR3/U937 cells (Table 3c)): 100%
"Cc1ccc(NC(=O)NCCCN(CCCC(=O)O)C2CCCc3ccccc32)cc1 (stereo not shown) [Compound 64, 4-[[3-(4-Methylphenylureido)propyl](1,2,3,4-tetrahydro-1-naphthyl)-amino]butanoic acid]",,inhibition at 10 µM (CCR3/U937 cells (Table 3a)): 100%
CSc1cccc(NC(=O)NCCCN(CCCC(=O)O)C2CCCc3ccccc32)c1 (stereo not shown) [Compound 263],100%,
CC[N+](CCCNC(=O)Nc1ccccc1)(CCc1ccc(Cl)cc1)Cc1cccc(Oc2ccccc2)c1.[I-] (stereo not shown) [compound 333],,Chemotaxis Assay 10 µM (inhibition %) (CCR3/U937 cells (Table 3c)): 100%
CC[N+](CCCNC(=O)Nc1ccccc1)(CCc1ccc(Cl)cc1)Cc1cccc(Cl)c1.[I-] (stereo not shown) [compound 329],,Chemotaxis Assay 10 µM (inhibition %) (CCR3/U937 cells (Table 3c)): 100%
O=C(O)CCCN(CCCNC(=O)Nc1ccccc1)C1CCCc2ccccc21 (stereo not shown) [Compound 87],97%,
COC(=O)CCCN(CCCNC(=O)Nc1ccccc1Br)C1CCCc2ccccc21 (stereo not shown) [Compound 189],94%,
O=C(O)CCCN(CCCNC(=O)Nc1ccc(Br)cc1)CCC(c1ccccc1)c1ccccc1 [Compound 76],44%,
CCN(CCCCCNC(=O)Nc1ccccc1)CCc1ccc(Cl)cc1 [Compound 8],94%,
CC[N+](CCCNC(=O)Nc1ccccc1)(CCc1ccc(Cl)cc1)CC(N)=O.[I-] (stereo not shown) [Compound 300],,Chemotaxis Assay 10 µM (inhibition %) (CCR3/U937 cells (Table 3c)): 100%
CCOC(=O)c1cccc(NC(=O)NCCCN(CCCC(=O)O)C2CCCc3ccccc32)c1 (stereo not shown) [Compound 236],97%,
COC(=O)CCCN(CCCNC(=O)Nc1ccc(Oc2ccccc2)cc1)C1CCCc2ccccc21 (stereo not shown) [Compound 58],100. %,
O=C(O)CCCN(CCCNC(=O)Nc1ccc(Br)cc1)CCc1ccccc1 [Compound 72],68%,
CCN(CCCNC(=O)Nc1ccccc1)C1CCc2ccccc21 (stereo not shown) [Compound 234],89%,
COC(=O)CCCN(CCCNC(=O)Nc1ccccc1)C1CCCc2ccccc21 (stereo not shown) [Compound 56],100%,
COC(=O)CCCN(CCCNC(=O)Nc1ccccc1-c1ccccc1)C1CCCc2ccccc21 (stereo not shown) [Compound 54],19%,
O=C(O)CCCN(CCCNC(=O)Nc1ccc(Br)cc1)CCc1ccc(Cl)cc1 [Compound 79],78%,

Compound,Chemotaxis Assay 10 µM (inhibition %) (CCR3/U937 cells (Table 3a)),further results
CC(=O)c1ccc(NC(=O)NCCCN(CCCC(=O)O)C2CCCc3ccccc32)cc1 (stereo not shown) [Compound 278],100%,
COC(=O)CCCN(CCCNC(=O)Nc1ccc(OC)cc1OC)C1CCCc2ccccc21 (stereo not shown) [Compound 55],38%,
COC(=O)CCCN(CCCNC(=O)Nc1cccc(C)c1)C1CCCc2ccccc21 (stereo not shown) [Compound 52],100%,
COC(=O)CCCN(CCCNC(=O)Nc1ccccc1Br)C(C)(C)c1ccccc1 [Compound 194],100%,
COC(=O)CCCN(CCCNC(=O)Nc1ccc(Br)cc1)C1CCc2ccccc21 (stereo not shown) [Compound 176],75%,
CC[N+](CCCNC(=O)Nc1ccc(C(F)(F)F)cc1)(CCOCCOC)CCc1cccc(F)c1.[I-] (stereo not shown) [compound 389],,Chemotaxis Assay 0.1 µg/ml (inhibition %): 65%
O=C(NCCCN(CCc1ccc(Cl)cc1)Cc1ccncc1)Nc1ccccc1 [Compound 24],100%,
COC(=O)CCCN(CCCNC(=O)Nc1cccc(Cl)c1)C1CCCc2ccccc21 (stereo not shown) [Compound 51],100%,
CCN(CCCNC(=O)Nc1ccccc1)C1CCCc2ccccc21 (stereo not shown) [Compound 192],100%,
O=C(O)CCCN(CCCNC(=O)Nc1ccc(Oc2ccccc2)cc1)C1CCCc2ccccc21 (stereo not shown) [Compound 89],89%,
CC[N+](CCCNC(=O)Nc1ccccc1)(CCc1ccc(Cl)c(Cl)c1)CC(N)=O.[I-] (stereo not shown) [compound 410],,Chemotaxis Assay 0.1 µg/ml (inhibition %): . 50%
"CCOC(=O)c1ccc(NC(=O)NCCCN(CCCC(=O)O)C2CCCc3ccccc32)cc1 (stereo not shown) [Compound 228, 4-[[3-[4-(Ethoxycarbonyl)phenylureido]propyl](1,2,3,4-tetrahydro-1-naphthyl)amino]butanoic acid]",,inhibition at 10 µM (CCR3/U937 cells (Table 3a)): 100%
CC[N+](CCCNC(=O)Nc1ccccc1)(CCOCCOC)CCc1cccc(OC)c1.[I-] (stereo not shown) [compound 406],,Chemotaxis Assay 0.1 µg/ml (inhibition %): 43%
CC[N+](CCCNC(=O)Nc1ccccc1)(CCc1ccc(Cl)cc1)Cc1ccccc1C.[I-] (stereo not shown) [compound 346],,Chemotaxis Assay 10 µM (inhibition %) (CCR3/U937 cells (Table 3c)): 100%
COC(=O)CCCN(CCCNC(=O)Nc1ccc(Br)cc1)Cc1ccc2c(c1)OCO2 [Compound 40],88%,
COC(=O)CCCN(CCCNC(=O)Nc1ccc(Br)cc1)Cc1ccccc1 [Compound 37],100%,
O=C(O)CCCN(CCCNC(=O)Nc1ccc2ccccc2c1)C1CCCc2ccccc21 (stereo not shown) [Compound 265],95%,
CC[N+](CCCNC(=O)Nc1ccc(C(F)(F)F)cc1)(CCOCCOC)CCc1ccc(Cl)cc1Cl.[I-] (stereo not shown) [compound 388],,Chemotaxis Assay 0.1 µg/ml (inhibition %): 56%
